Here are results for eleven compounds from ChEMBL document CHEMBL1201862, “PubChem BioAssay data set” (2004).

Each structure is given as a SMILES string.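 The compound was tested at five concentrations on cells cultured in 96-well plates, with a 48-hour exposure period. GI50 marks 50% less growth.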 Active and inactive are the calls of the source. No stated cut-off is given here; in the data, active = GI50 up to about 1.1 µM and inactive = higher. A value given as a limit tells only on which side of the number the result lay.

What all share (assay): growth of human tumour cells (NCI), 48 h
Assay [1] has as its system 786-0.
Assay [2] deals with ACHN.
The test system of assay [3] is EKVX.
Assay [4] has as its system HCT-116.
Assay [5] has as its system HOP-92.
In assay [6] the test system is Hs-578T.
Assay [7] relates to MCF7.
The test system of assay [8] is NCI-H23.
Assay [9] has as its system NCI-H460.
Assay [10] concerns OVCAR-8.
Assay [11] relates to PC-3.
Assay [12] concerns SF-268.
Assay [13] has as its system SF-295.
The subject of assay [14] is SK-MEL-28.
The subject of assay [15] is SN12C.
Assay [16] concerns SNB-75.
Assay [17] has as its system SR.
Assay [18] relates to TK-10.
Assay [19] deals with U-251.
Assay [20] deals with HCC 2998.

`CCCCSCc1nc2nc(Cl)c(Cl)nc2[nH]1`: the GI50 is 25.6 µM (inactive) in assay [1]; 23.9 µM (inactive) in assay [2]; 33.3 µM (inactive) in assay [3]; 19.5 µM (inactive) in assay [4]; 24.5 µM (inactive) in assay [5]; 35.6 µM (inactive) in [6]. For the same compound, the GI50 in assay [7] is 23.6 µM (inactive); in [8], 16.8 µM (inactive); in [9], 20.6 µM (inactive); in [10], 34.9 µM (inactive); in assay [11], 31.6 µM (inactive); in [12], 35.6 µM (inactive). Further, the GI50 was 14.5 µM (inactive) in assay [13]; 23 µM (inactive) in assay [14]; 22.1 µM (inactive) in assay [15]; 19 µM (inactive) in assay [16]; 22 µM (inactive) in assay [17]; 27.9 µM (inactive) in assay [18]. The GI50 in assay [19] is 20.9 µM (inactive).
As to `O=C1Nc2c(Cl)cccc2/C1=N/Nc1ccccc1[N+](=O)[O-]`, the GI50 in [1] was 10.1 µM (inactive); in [2], 11.9 µM (inactive); in assay [3] it was 3.51 µM (inactive); in assay [20], 32.7 µM (inactive); in assay [4], 29.7 µM (inactive); in assay [6] it was 7.87 µM (inactive). The GI50 in [7] is 14.7 µM (inactive); in [8], 13.5 µM (inactive); in assay [9] it was 17.3 µM (inactive); in assay [10] it was 12.4 µM (inactive); in assay [11] it was 31.9 µM (inactive); in assay [12], 11.4 µM (inactive). For the same compound, the GI50 in assay [13] was 9.02 µM (inactive); in assay [14], 35.1 µM (inactive); in [15], 28.9 µM (inactive); in assay [16], 14 µM (inactive); in assay [17], 4.68 µM (inactive); in assay [18] it was 11.5 µM (inactive). The GI50 in assay [19] is 14.2 µM (inactive).
Consider `CCN1CCC(O)(c2ccc([N+](=O)[O-])cc2)C(C(=O)c2ccc([N+](=O)[O-])cc2)C1` (stereo not drawn), for which the GI50 in assay [1] is 15.5 µM (inactive); in assay [2], 17.8 µM (inactive); in assay [3], 18.9 µM (inactive); in assay [20], 17.7 µM (inactive); in assay [4], 17.2 µM (inactive); in [6], 23.2 µM (inactive). Also, the GI50 in [7] is 15.4 µM (inactive); in assay [8] it was 19.5 µM (inactive); in assay [9], 28.8 µM (inactive); in assay [10], 30.1 µM (inactive); in assay [11], 26.6 µM (inactive); in assay [12] it was 21 µM (inactive). For the same compound, the GI50 in assay [13] was > 100 µM (inactive); in assay [14], 16.6 µM (inactive); in assay [15], 21.1 µM (inactive); in assay [16] it was 34.5 µM (inactive); in [17] it was 33 µM (inactive); in assay [18], 17.8 µM (inactive). Moreover, the GI50 in assay [19] was 29.2 µM (inactive).
Take `N/C(=N\N=C\c1cc2ccccc2s1)c1cnccn1`: the GI50 in [1], in assay [2], in assay [3], in [4], in assay [5] and in assay [6] was > 100 µM (inactive) throughout. Also, the GI50 is 5.24 µM (inactive) in assay [7]; > 100 µM (inactive) in assay [8]; > 100 µM (inactive) in assay [9]; 78.2 µM (inactive) in assay [10]; 92.3 µM (inactive) in assay [11]; > 100 µM (inactive) in assay [12]. For the same compound, the GI50 in [13] is 84.5 µM (inactive); in assay [14], > 100 µM (inactive); in assay [15], > 100 µM (inactive); in assay [16], 29.3 µM (inactive); in assay [17], 6 µM (inactive); in assay [18], 87.7 µM (inactive). For the same compound, the GI50 in [19] was > 100 µM (inactive).
With `Cc1noc(/N=C2\C=C(O)C(=O)c3ccccc32)c1C`, the GI50 in assay [1] was 21.2 µM (inactive); in assay [2] it was 13 µM (inactive); in assay [3], 37.8 µM (inactive); in [4], 1.69 µM (inactive); in [5], 18.8 µM (inactive); in assay [6], 2.24 µM (inactive). For the same compound, the GI50 was 0.495 µM (active) in [7]; 3.47 µM (inactive) in [8]; 2.36 µM (inactive) in assay [9]; 7.38 µM (inactive) in assay [10]; 16.4 µM (inactive) in [11]; 16.9 µM (inactive) in [12]. In addition, the GI50 in [13] was 11.1 µM (inactive); in [14], 58.1 µM (inactive); in assay [15], 0.918 µM (active); in assay [16], 3.5 µM (inactive); in assay [17] it was 18.7 µM (inactive); in assay [18], > 100 µM (inactive). The GI50 in assay [19] is 1.03 µM (active).
Consider `CC(C)(C)c1cc(S(=O)(=O)O)c2oc(-c3ccccc3)cc(=O)c2c1`, for which the GI50 in assay [1], in assay [2], in assay [3], in assay [20], in assay [4] and in assay [6] was > 100 µM (inactive) in each case. For the same compound, the GI50 in assay [7], in assay [8], in assay [9], in assay [10], in assay [11] and in [12] was > 100 µM (inactive) in each case. In addition, the GI50 in assay [13], in [14], in assay [15], in [16], in assay [17] and in assay [18] was > 100 µM (inactive) throughout. Further, in assay [19], the GI50 is > 100 µM (inactive).
`COc1cc2nc(-c3cccs3)[nH]c(=O)c2cc1OC`: the GI50 in assay [1] is > 100 µM (inactive); in [2] it was > 100 µM (inactive); in assay [3], > 100 µM (inactive); in assay [4] it was 70.6 µM (inactive); in assay [5] it was > 100 µM (inactive); in assay [6], > 100 µM (inactive). In addition, the GI50 in assay [7], in assay [8], in assay [9], in assay [10], in assay [11] and in [12] was > 100 µM (inactive) each time. The GI50 is 86.7 µM (inactive) in [13]; > 100 µM (inactive) in [14]; > 100 µM (inactive) in assay [15]; > 100 µM (inactive) in assay [16]; 13.8 µM (inactive) in assay [17]; > 100 µM (inactive) in assay [18]. Also, the GI50 in [19] was 61.7 µM (inactive).
`COc1cc([N+](=O)[O-])ccc1NC(=O)C(F)(F)F`: the GI50 in assay [1], in assay [2], in assay [3], in assay [4], in assay [6] and in [7] was > 100 µM (inactive) throughout. Also, the GI50 in assay [8], in assay [9], in [10], in assay [11], in [12] and in assay [13] was > 100 µM (inactive) each time. Besides, the GI50 in assay [14], in assay [15], in [16], in assay [17], in assay [18] and in assay [19] was > 100 µM (inactive) throughout.
Turning to `Cc1cccc(CC(Cc2c(C)cccc2C(=O)O)C(=O)O)c1` (stereo not drawn), the GI50 was > 100 µM (inactive) in [1]; > 100 µM (inactive) in assay [2]; > 100 µM (inactive) in assay [3]; 67.6 µM (inactive) in assay [20]; > 100 µM (inactive) in [4]; > 100 µM (inactive) in assay [6]. Further, the GI50 in assay [7], in [8], in [9], in [10], in [11] and in assay [12] was > 100 µM (inactive) in each case. For the same compound, the GI50 in assay [13], in assay [14], in assay [15], in assay [16], in assay [17] and in assay [18] was > 100 µM (inactive) throughout. For the same compound, the GI50 in [19] is > 100 µM (inactive).
As for `C=CCC1C2CCC(O[Si](C(C)C)(C(C)C)C(C)C)(C(C(=O)OC)C2)C1O` (stereo not drawn), the GI50 was 17.2 µM (inactive) in [1]; > 100 µM (inactive) in assay [2]; 22.4 µM (inactive) in assay [3]; 19.5 µM (inactive) in assay [4]; > 100 µM (inactive) in [5]; 23.6 µM (inactive) in assay [6]. Moreover, the GI50 in assay [7] is 35.4 µM (inactive); in assay [8], 23.5 µM (inactive); in assay [9] it was 61.8 µM (inactive); in assay [10] it was > 100 µM (inactive); in assay [11], 67.5 µM (inactive); in [12], > 100 µM (inactive). In addition, the GI50 in [13] was 23.4 µM (inactive); in assay [14], 65.8 µM (inactive); in [15], > 100 µM (inactive); in assay [16] it was 71.1 µM (inactive); in assay [17] it was 17.6 µM (inactive); in assay [18], 14.4 µM (inactive). Further, the GI50 in assay [19] was 60.3 µM (inactive).
On to `NCCCn1c2ccccc2c2c3c(c4c(c21)CCC(O)CC4)C(=O)NC3=O` (stereo not drawn), for which the GI50 in assay [1] is 2.92 µM (inactive); in assay [2], 1.79 µM (inactive); in assay [3], 9.18 µM (inactive); in [20], 0.845 µM (active); in assay [4], 1.88 µM (inactive); in [5] it was 2.71 µM (inactive). In addition, the GI50 in assay [6] is 3.13 µM (inactive); in [7] it was 0.796 µM (active); in [8] it was 2.45 µM (inactive); in [9], 2.06 µM (inactive); in assay [10], 5.01 µM (inactive); in assay [11] it was 3.48 µM (inactive). In addition, the GI50 is 1.58 µM (inactive) in [12]; 3.22 µM (inactive) in [13]; 0.92 µM (active) in assay [14]; 2.42 µM (inactive) in assay [15]; 1.69 µM (inactive) in assay [17]; 3.57 µM (inactive) in assay [18]. Moreover, in [19], the GI50 is 1.75 µM (inactive).
